Data reported in US8211897B2, “Inhibitors of cathepsin B” (ViroBay, Inc., priority 2008, dated 2012).

Assays:
Human Liver Cathepsin B = target: T1, Human Liver Cathepsin B (Homo sapiens, UniProt P07858); experiment: Biochemical assay of inhibition of Cathepsin B enzymatic activity; settings: 20 uM Boc-Leu-Arg-Arg-AMC, pH 5.5, 15 minutes preincubation, 30 minutes at 25° C.
T1 construct: from tissue; host or cells: human liver
Description: The test compound of Formula (I) was dissolved in dimethylsulfoxide (DMSO) and diluted in assay buffer. An 8 point dose response curve was completed in order to evaluate the IC50 value of inhibition of Cathepsin B enzymatic activity (IC50 is defined as the concentration which inhibited 50% of maximal enzyme activity). The assay protocol was adapted from Barrett, 1980. Human Liver Cathepsin B was incubated in assay buffer (50 mM sodium acetate, pH 5.5, 1 mM dithiothreitol (DTT), 2 mM ethylenediaminetetraacetic acid (EDTA) with 20 uM peptide substrate (Boc-Leu-Arg-Arg-AMC) with the compounds diluted from DMSO stocks or DMSO vehicle alone. Final DMSO concentration was retained at 1% in the assay. The test compound was preincubated with the enzyme for 15 minutes at 25° C. Reaction was started with the addition of substrate, and allowed to proceed for 30 minutes at 25° C. Substrate cleavage was monitored with spectrofluorimetric quantitation of methylcoumarylamide (AMC).

[1] = system: Liver fibrosis induced in mice by carbon tetrachloride; experiment: Carbon tetrachloride-induced liver fibrosis model; type: in vivo; settings: CCl4 fibrosis, once daily from day 12, 250 mg/kg and 50 mg/kg, terminal day 33
Description: Liver fibrosis was induced in mice by intraperitoneal administration of carbon tetrachloride every 5 days over a 28-day period (days 0-28). On day 11, plasma alanine aminotransferase (ALT) levels and aspertate aminotransferase (AST) were measured from representative mice to confirm liver damage. (2S,4R)-1-((S)-(3-tert-butylureido)-3,3-dimethylbutanoyl]-N-((S)-1-cyclopropylamino)-1,2-dioxohexan-3-yl)-4-(7-methoxy-2-(1H-pyrazol-1-yl)-quinolin-4-yloxy)pyrrolidine-2-carboxamide was administered therapeutically, once daily, starting on day 12, […]. On day 33, terminal plasma AST and ALT, liver hydroxyproline, PK/PD, and histology were assessed.

[2] = target: T2, Cathepsin B in human cells (HUVECs) (Homo sapiens, UniProt P07858); experiment: Cellular activity-based probe (whole-cell enzyme occupancy) assay; settings: serum-free media, 4 hours compound treatment, 125I-DMK probe 1 hour
T2 construct: endogenous in cells; host or cells: HUVEC (human umbilical vein endothelial cells)
Description: Activity of Cathepsin B in cells was measured with the use of an activity-based radioactive probe in a whole-cell enzyme occupancy assay. This method was used to determine the specific potencies of compounds on Cathepsin B in the intracellular environment. The probe used was a peptide diazomethylketone which binds to Cathepsins, including Cathepsin B, potently and irreversibly. This cell-permeable probe binds to active Cathepsin B and binding can be quantified to determine the level of Cathepsin B activity in cells. Cathepsin B enzyme in cells which has bound to an inhibitor is not active and as such not available for binding by the activity-based probe.
The method used was based on a modification of a published method (Falgueyret J-P, et al. 2004. Anal. Biochem. 335:218-227). Human umbilical vein endothelial cells (HUVECs) were grown in 24 well plates in standard growth conditions. […]
To analyze probe-labeled proteins, samples were boiled for 5 minutes and analyzed by SDS-PAGE. […] The band intensities on the autoradiographs were determined. Autoradiographs were scanned using a Microtek ScanMakeri900 scanner and bands quantified with a program such as the BioRad Imaging program QuantityOne or ImageJ. Compound potencies were calculated as a % of the no inhibitor control and IC50 values were extrapolated from the dose-response curves using a suitable program like GraphPad Prism.

Row | SMILES | IC50 (Human Liver Cathepsin B) [nM] | also measured
1 | CCC[C@H](NC(=O)[C@@H]1CC(Oc2cc(-c3ccccn3)nc3ccsc23)CN1C(=O)[C@@H](NC(=O)NC(C)(C)C)C(C)(C)C)C(=O)C(=O)NC1CC1 (stereo partly shown) | 86 | 
2 | CCC[C@H](NC(=O)[C@@H]1CC(Oc2cc(-n3cccn3)nc3cc(OC)ccc23)CN1C(=O)[C@@H](NC(=O)NCC1CC1)C(C)(C)C)C(=O)C(=O)NC1CC1 (stereo partly shown) | 83 | 
3 | CCC[C@H](NC(=O)[C@@H]1C[C@@H](Oc2cc(-n3cccn3)nc3cc(OC)ccc23)CN1C(=O)[C@@H](NC(=O)NCC(C)(C)C)C(C)(C)C)C(=O)C(=O)NC1CC1 [(2S,4R)-N-((S)-1-(cyclopropylamino)-1,2-dioxohexan-3-yl)-1-((S)-3,3-dimethyl-2-(3-neopentylureido)butanoyl)-4-(7-methoxy-2-(1H-pyrazol-1-yl)quinolin-4-yloxy)pyrrolidine-2-carboxamide] | 61 | 
4 | CCC[C@H](NC(=O)[C@@H]1CC(Oc2cc(-n3cccn3)nc3cc(OC)ccc23)CN1C(=O)[C@@H](NC(=O)NC(C)(C)C)C(C)(C)C)C(=O)C(=O)NC1CC1 (stereo partly shown) [Example 1] | < 500 | liver hydroxyproline [1]: decreased; plasma ALT [1]: decreased; plasma AST [1]: decreased; IC50 [2]: 24 nM
5 | COc1ccc2c(O[C@@H]3C[C@@H](C(=O)N[C@@H](CC4CCC4)C(=O)C(=O)NC4CC4)N(C(=O)[C@@H](NC(=O)NC(C)(C)C)C(C)(C)C)C3)cc(-n3cccn3)nc2c1 [Example 2, (2S,4R)-1-((S)-(3-tert-butylureido)-3,3-dimethylbutanoyl]-N-((S)-1-cyclobutyl-4-(cyclopropylamino)-3,4-dioxobutan-2-yl)-4-(7-methoxy-2-(1H-pyrazol-1-yl)-quinolin-4-yloxy)pyrrolidine-2-carboxamide] | < 500 | liver hydroxyproline [1]: reduces; plasma ALT [1]: reduces; plasma AST [1]: reduces; IC50 [2]: 19 nM
6 | CCC[C@H](NC(=O)[C@@H]1C[C@@H](Oc2nccc3cc(OC)ccc23)CN1C(=O)[C@@H](NC(=O)NC(C)(C)C)C(C)(C)C)C(=O)C(=O)NC1CC1 [Example 9] | 27 | 
7 | COc1ccc2c(O[C@@H]3C[C@@H](C(=O)N[C@@H](CC4CC4)C(=O)C(=O)NC4CC4)N(C(=O)[C@@H](NC(=O)NC(C)(C)C)C(C)(C)C)C3)nccc2c1 [Example 10, (2S,4R)-1-((S)-2-(3-tert-Butylureido)-3,3-dimethylbutanoyl)-N-((S)-1-cyclopropyl-4-(cyclopropylamino)-3,4-dioxobutan-2-yl)-4-(6-methoxyisoquinolin-1-yloxy)-pyrrolidine-2-carboxamide] | 56 | 
8 | CCOc1ccc2c(O[C@@H]3C[C@@H](C(=O)N[C@@H](CC4CC4)C(=O)C(=O)NC4CC4)N(C(=O)[C@@H](NC(=O)NC(C)(C)C)C(C)(C)C)C3)nccc2c1 [Example 11, (2S,4R)-1-((S)-2-(3-tert-Butylureido)-3,3-dimethylbutanoyl)-N-((S)-1-cyclopropyl-4-(cyclopropylamino)-3,4-dioxobutan-2-yl)-4-(6-ethoxyisoquinolin-1-yloxy)-pyrrolidine-2-carboxamide] | 49 | 
9 | CCC[C@H](NC(=O)[C@@H]1C[C@@H](Oc2nccc3cc(OCC)ccc23)CN1C(=O)[C@@H](NC(=O)NC(C)(C)C)C(C)(C)C)C(=O)C(=O)NC1CC1 [Example 12, (2S,4R)-1-((S)-2-(3-tert-Butylureido)-3,3-dimethylbutanoyl)-N-((S)-1-(cyclopropylamino)-1,2-dioxohexan-3-yl)-4-(6-ethoxyisoquinolin-1-yloxy)-pyrrolidine-2-carboxamide] | 45 | 
10 | CCCC[C@H](NC(=O)[C@@H]1CC(Oc2nccc3cc(OC)ccc23)CN1C(=O)[C@@H](NC(=O)NC(C)(C)C)C(C)(C)C)C(=O)C(=O)NC1CC1 (stereo partly shown) [Example 13] | 28 | 
11 | CCC[C@H](NC(=O)[C@@H]1C[C@@H](Oc2nc(C)cc3cc(OC)ccc23)CN1C(=O)[C@@H](NC(=O)NC(C)(C)C)C(C)(C)C)C(=O)C(=O)NC1CC1 [Example 15, (2S,4R)-1-((S)-2-(3-tert-butylureido)-3,3-dimethylbutanoyl)-N-((S)-1-(cyclopropylamino)-1,2-dioxohexan-3-yl)-4-(6-methoxy-3-methylisoquinolin-1-yloxy)pyrrolidine-2-carboxamide] | 32 | 
12 | CCC[C@H](NC(=O)[C@@H]1C[C@@H](Oc2nc(-c3ccccn3)nc3sccc23)CN1C(=O)[C@@H](NC(=O)NC(C)(C)C)C(C)(C)C)C(=O)C(=O)NC1CC1 [Example 16, (2S,4R)-1-((S)-2-(3-tert-butylureido)-3,3-dimethylbutanoyl)-N-((S)-1-(cyclopropylamino)-1,2-dioxohexan-3-yl)-4-(2-(pyridin-2-yl)thieno[2,3-d]pyrimidin-4-yloxy)pyrrolidine-2-carboxamide] | 45 | 
13 | CCC[C@H](NC(=O)[C@@H]1C[C@@H](Oc2nc(-c3ccccn3)nc3ccsc23)CN1C(=O)[C@@H](NC(=O)NC(C)(C)C)C(C)(C)C)C(=O)C(=O)NC1CC1 [Example 17, (2S,4R)-1-((S)-2-(3-tert-butylureido)-3,3-dimethylbutanoyl)-N-((S)-1-(cyclopropylamino)-1,2-dioxohexan-3-yl)-4-(2-(pyridin-2-yl)thieno[3,2-d]pyrimidin-4-yloxy)pyrrolidine-2-carboxamide] | 33 | 
14 | CCC[C@H](NC(=O)[C@@H]1C[C@@H](Oc2nc(-c3cc(C)nn3C)nc3ccsc23)CN1C(=O)[C@@H](NC(=O)NC(C)(C)C)C(C)(C)C)C(=O)C(=O)NC1CC1 [Example 18, (2S,4R)-1-((S)-2-(3-tert-butylureido)-3,3-dimethylbutanoyl)-N-((S)-1-(cyclopropylamino)-1,2-dioxohexan-3-yl)-4-(2-(1,3-dimethyl-1H-pyrazol-5-yl)thieno[3,2-d]pyrimidin-4-yloxy)pyrrolidine-2-carboxamide] | 72 | 
